Measurements as given in PMC7287031 (Pharmacology Research & Perspectives, 2020).

Experiments:
[1] = Human ADME study: total radioactivity PK in blood and plasma (AMS); assay type: in vivo; conditions: single oral 600 mg [14C] ribociclib, N=6
Description: Subjects continued to fast for 4 hours after drug administration. […] Urine was collected from 0‐6, 6‐12, and 12‐24 h post dose, then over 24‐hour intervals until 504 hours post dose. Feces was collected over 24‐h intervals until 504 hours post dose, during which time the volunteers were confined to the clinic. Vomitus was also scheduled to be collected for 12 hours post dosing. However, no volunteers vomited during the study. […] Electrostatics Corporation 1.5SDH Compact AMS System (Middleton) in the bioanalytical laboratory of Accium BioSciences, Seattle, WA, USA. A known aliquot of each blood and plasma specimen was transferred to a prebaked quartz tube. […] An AMS batch consisted of unknown specimens and chemical blank(s) to monitor for any in‐process contamination. The samples were then dried using vacuum centrifugation and submitted to graphitization. Graphitization consisted of combustion of samples followed by reduction to graphite according to published methods. ^12 Briefly, approximately 200‐mg copper oxide was added to each combustion tube containing the dried sample residue. The combustion tubes were flame‐sealed under vacuum and combusted at approximately 900°C to form carbon dioxide (CO2). Combusted samples were then attached to a disposable transfer system connected to a septa‐sealed vial. […]

[2] = Rat ADME study: excretion, mass balance, metabolite profiling with radiolabeled ribociclib; assay type: in vivo
Description: ADME studies (including QWBA in pigmented and non‐pigmented rats) using radiolabeled ribociclib were conducted in rat and dog. Relevant institutional and national guides for the care and use of laboratory animals were followed.
Metabolite profiling was conducted on plasma, urine, bile, and feces samples in the rat and dog ADME studies, and further metabolite profiling on plasma and milk was conducted in a dedicated rat milk excretion study.
Plasma samples obtained from these studies were extracted with equal volumes of acetonitrile. Additional extractions of the protein pellet with acetonitrile and/or acetone were conducted as needed to maximize radioactivity recovery. Feces samples were initially extracted with two to four volumes of acetonitrile. Additional extractions of the pellet following centrifugation and removal of supernatant were conducted with acetonitrile and/or acetone as needed to maximize radioactivity recovery. Urine and bile samples were analyzed directly following centrifugation. Radioactivity recoveries following the centrifugation step were measured by LSC. Milk samples were extracted with two volumes of acetonitrile, following centrifugation and removal of supernatant, the pellets were re‐suspended in 100 µL of water and re‐extracted with 200 µL acetonitrile.
Metabolite profiling in the ADME studies was conducted using liquid chromatography‐mass spectrometry. Radioactivity profiles were generated by diversion of the majority of the post‐column flow into 96‐well yttrium silicate scintillation‐coated plates (Deepwell Lumaplates; Perkin Elmer Life and Analytical Sciences Inc), by means of Gilson FC204 fraction collectors (Gilson). Metabolites were identified by mass spectrometry (Waters QTOF operating under MassLynx 4.1) and, where feasible, by comparison with authentic reference standards.

CYP1A2 = biological target: T1, CYP1A2 (Homo sapiens, UniProt P05177); experiment: Enzyme kinetics with recombinant CYP1A2 and scaling to HLM; assay type: in vitro ADME
T1 construct: purchased BD Biosciences
T1 sequence (P05177 1-516): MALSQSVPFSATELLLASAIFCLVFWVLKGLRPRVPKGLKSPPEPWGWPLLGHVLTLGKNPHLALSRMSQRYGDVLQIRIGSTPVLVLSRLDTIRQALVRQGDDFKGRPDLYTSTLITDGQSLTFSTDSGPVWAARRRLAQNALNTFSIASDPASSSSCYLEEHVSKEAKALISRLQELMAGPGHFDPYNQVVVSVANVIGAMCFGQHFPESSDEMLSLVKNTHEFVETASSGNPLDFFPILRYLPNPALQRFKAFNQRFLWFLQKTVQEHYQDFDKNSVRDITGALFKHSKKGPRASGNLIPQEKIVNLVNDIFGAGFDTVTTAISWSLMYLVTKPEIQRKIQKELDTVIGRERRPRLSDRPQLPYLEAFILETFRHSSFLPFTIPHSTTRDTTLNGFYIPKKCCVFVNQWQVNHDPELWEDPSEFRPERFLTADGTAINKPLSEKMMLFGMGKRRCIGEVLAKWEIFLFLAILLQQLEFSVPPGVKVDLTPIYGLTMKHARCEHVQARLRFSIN
Description: In vitro incubations were carried out in 100‐mM potassium phosphate buffer (pH 7.4) and 5‐mM MgCl2 with a total volume of 200 µL. Substrate and either human liver microsomes (HLM, BD Biosciences, mixed gender pool of n = 50) or recombinant human enzymes (BD Biosciences) were added and pre‐incubated for 3 minutes at 37°C. The reaction was started by addition of a fresh solution of NADPH (1 mmol/L final concentration). The samples were incubated at 37°C with agitation of 500 rpm. For incubations with CYP2A6, CYP2C9, CYP2C18, and CYP4A11, the phosphate buffer was replaced by TRIS buffer (100 mmol/L, pH 7.4) and for flavin‐containing monooxygenases (FMOs), a glycine buffer (50 mM, pH 9.5) was used.
The enzymatic reaction was stopped and the protein was precipitated by addition of an equal volume of methanol. After 30 min at −80°C, the samples were centrifuged at 30'000 x g for 15 min. The supernatant was withdrawn. Aliquots were analyzed by LSC and the supernatant was diluted with water to obtain a final solution containing less than 20% of the organic solvent. For samples of low substrate concentration, supernatants were evaporated to dryness under nitrogen, then re‐suspended in water containing less than 20% of methanol. Samples were analyzed by HPLC combined with radiodetection. […]

[3] = rat, oral dosing of radiolabeled ribociclib

CN(C)C(=O)c1cc2cnc(Nc3ccc(N4CCNCC4)cn3)nc2n1C1CCCC1 [ribociclib, Ribociclib]
tlast of total radioactivity, median ([1]; human blood): 504 h | tlast of total radioactivity, median ([1]; human plasma): 504 h | Recovery of radioactivity in mass balance study ([2]; rat): approximately 90% | Absorption ([2]; rat ADME study, derived from AUC of total radiolabeled components after i.v. and p.o. dosing): 66% | dose eliminated in bile (radioactivity) ([2]; rat, i.v.): 61.4 % of dose | ribociclib in feces of bile duct-cannulated rats ([2]; rat, i.v.): 8 % of the dose | unchanged ribociclib recovered in bile ([2]; rat, i.v.): 1 % of the dose | radioactivity found in feces [2, 3]: 84.0% | radioactivity found in urine [2, 3]: 5.9% | ribociclib in feces ([2]; rat, p.o.): 22.4 % of the oral dose | unchanged ribociclib in urine ([2]; rat, p.o.): 2.7 % of the dose | fm,CYP (CYP1A2; CYP1A2, share of total CYP-mediated metabolism in HLM): 1.1% | fumic (CYP1A2; CYP1A2 incubation): 0.86
